Data from patent EP1247803A2, “Indolinone compounds suitable for modulation of protein kinases” (Sugen, Inc., priority 1996, dated 1998).

biological target: T1, EGFR (Homo sapiens, UniProt P00533); assay: EGFR ELISA assay (in vitro kinase activity, EGFR captured from A431 cell lysate); assay type: biochemical; design: concentration or dose not given beside the values
T1 construct: Add 7 ug A431 cell lysate per well (EGFR source); endogenous in cells; host or cells: A431
Method in brief: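 EGFR from A431 lysate was captured on plates coated with anti-EGFR antibody. Compounds were added 30 min before a 5 min phosphorylation with 3 µM ATP/5 mM MnCl2, which was stopped with 20 mM EDTA. Phosphotyrosine was detected with rabbit anti-phosphotyrosine, then a peroxidase-conjugated secondary and ABTS/H2O2, read at 410 nm.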

T1 sequence (P00533 25-1210): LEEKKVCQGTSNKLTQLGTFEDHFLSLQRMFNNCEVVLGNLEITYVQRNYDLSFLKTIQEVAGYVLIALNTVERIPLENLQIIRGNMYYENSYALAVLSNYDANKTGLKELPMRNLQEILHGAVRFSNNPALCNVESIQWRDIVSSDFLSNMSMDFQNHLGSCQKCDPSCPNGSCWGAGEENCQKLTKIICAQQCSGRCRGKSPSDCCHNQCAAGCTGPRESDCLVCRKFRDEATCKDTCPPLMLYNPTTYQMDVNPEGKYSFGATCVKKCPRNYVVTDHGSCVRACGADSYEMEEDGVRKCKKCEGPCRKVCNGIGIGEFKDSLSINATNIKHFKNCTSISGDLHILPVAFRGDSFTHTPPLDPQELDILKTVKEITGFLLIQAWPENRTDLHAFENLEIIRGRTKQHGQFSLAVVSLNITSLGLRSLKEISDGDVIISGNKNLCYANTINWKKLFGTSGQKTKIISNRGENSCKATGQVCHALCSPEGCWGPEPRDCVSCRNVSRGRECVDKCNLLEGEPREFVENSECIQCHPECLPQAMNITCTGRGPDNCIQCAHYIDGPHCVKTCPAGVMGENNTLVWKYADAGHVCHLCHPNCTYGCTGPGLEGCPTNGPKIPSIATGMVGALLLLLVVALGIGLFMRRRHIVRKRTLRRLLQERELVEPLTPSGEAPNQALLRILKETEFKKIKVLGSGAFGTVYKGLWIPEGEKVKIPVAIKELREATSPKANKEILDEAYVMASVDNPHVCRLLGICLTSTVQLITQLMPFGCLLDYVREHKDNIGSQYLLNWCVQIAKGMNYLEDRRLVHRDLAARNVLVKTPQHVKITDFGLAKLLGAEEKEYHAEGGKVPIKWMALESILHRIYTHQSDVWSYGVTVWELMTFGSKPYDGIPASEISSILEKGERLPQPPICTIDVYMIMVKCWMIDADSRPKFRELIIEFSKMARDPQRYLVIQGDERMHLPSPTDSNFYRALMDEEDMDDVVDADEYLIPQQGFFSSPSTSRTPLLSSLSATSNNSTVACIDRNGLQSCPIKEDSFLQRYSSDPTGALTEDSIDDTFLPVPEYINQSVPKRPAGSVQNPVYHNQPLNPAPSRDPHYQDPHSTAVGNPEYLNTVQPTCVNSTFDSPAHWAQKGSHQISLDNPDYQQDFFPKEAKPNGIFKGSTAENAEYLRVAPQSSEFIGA

Row | SMILES | Biochem EGFR %Inhibition [%]
1 | CNS(=O)(=O)c1ccc2c(c1)C(=Cc1cc(OC)ccc1OC)C(=O)N2 [10728/D02] | 9.9
2 | COc1cccc(C=C2C(=O)Nc3ccc(S(=O)(=O)N4CCOCC4)cc32)c1OC [10727/F11] | -2.6
3 | COc1cc(C=C2C(=O)Nc3ccc(I)cc32)cc2c1OCO2 [10728/B11] | 48.2
4 | O=C1Nc2ccc(S(=O)(=O)N3CCOCC3)cc2C1=Cc1cc(O)ccc1O [10727/F10] | 74.1
5 | O=C1Nc2ccc(I)cc2C1=Cc1cccc(C(F)(F)F)c1F [10728/B07] | 11.1
6 | O=C1Nc2c(Br)cc(Br)cc2C1=Cc1ccc(Cl)c([N+](=O)[O-])c1 [10718/A08] | 5.8
7 | O=C1Nc2ccc(S(=O)(=O)N3CCOCC3)cc2C1=Cc1cc2c(cc1Cl)OCO2 [10727/F06] | 4.9
8 | Cc1c(Br)ccc2c1C(=Cc1ccc3c(c1)Cc1ccccc1-3)C(=O)N2 [10728/C06] | 4.2
9 | CCc1cc(CC)c(C=C2C(=O)Nc3ccc(S(=O)(=O)Nc4ccc(C(F)(F)F)cc4)cc32)[nH]1 [10727/E03] | 35.5
10 | O=C1Nc2c(Br)cc(Br)cc2C1=Cc1cccc(C(F)(F)F)c1F [10728/A07] | 59.6
11 | COc1cc(C=C2C(=O)Nc3ccc(Br)c(C)c32)cc(OC)c1 [10728/C04] | 16.1
12 | CNS(=O)(=O)c1ccc2c(c1)C(=Cc1cc(OC)cc(OC)c1)C(=O)N2 [10728/D04] | -1.1
13 | N#Cc1ccc(C=C2C(=O)Nc3ccc(S(=O)(=O)N4CCOCC4)cc32)cc1 [10727/F09] | -2.0
14 | O=C1Nc2ccc(S(=O)(=O)Nc3ccc(C(F)(F)F)cc3)cc2C1=Cc1coc2ccccc2c1=O [10727/E07] | 7.1
15 | COc1cc(C=C2C(=O)Nc3c(Br)cc(Br)cc32)cc(OC)c1 [10728/A04] | 28.0
16 | CNS(=O)(=O)c1ccc2c(c1)C(=Cc1cc(Cl)cc(Br)c1O)C(=O)N2 [10727/D04] | 39.6
17 | COc1ccc(OC)c(C=C2C(=O)Nc3c(Br)cc(Br)cc32)c1 [10728/A02] | 9.2
18 | CCc1cc(CC)c(C=C2C(=O)Nc3ccc(CCCl)cc32)[nH]1 [10727/G03] | 19.4
19 | CCN(CC)c1ccc(C=C2C(=O)Nc3ccc(CCCl)cc32)cc1 [10727/G02] | 37.5
20 | COc1cc(N(C)C)ccc1C=C1C(=O)Nc2c(Br)cc(Br)cc21 [10728/A05] | 17.7
21 | O=C1Nc2ccc(S(=O)(=O)N3CCOCC3)cc2C1=Cc1coc2ccccc2c1=O [10727/F07] | -8.9
22 | O=C1Nc2ccc(S(=O)(=O)Nc3ccc(C(F)(F)F)cc3)cc2C1=Cc1ccccc1Sc1ccc(Cl)cc1 [10727/E05] | 12.9
23 | O=C1Nc2ccc(S(=O)(=O)Nc3ccc(C(F)(F)F)cc3)cc2C1=Cc1cc(Cl)cc(Br)c1O [10727/E04] | 82.1
24 | Cc1c(Br)ccc2c1C(=Cc1ccccc1OCC(=O)O)C(=O)N2 [10728/C10] | 4.4
25 | O=C1Nc2c(Br)cc(Br)cc2C1=Cc1ccc2c(c1)Cc1ccccc1-2 [10728/A06] | 17.2
26 | O=C(O)COc1ccccc1C=C1C(=O)Nc2ccc(I)cc21 [10728/B10] | 16.8

Row | SMILES | Biochem EGFR %Inhibition [%]
27 | COc1cccc(OC)c1C=C1C(=O)Nc2ccc(I)cc21 [10728/B03] | -36.6
28 | N#Cc1cccc(C=C2C(=O)Nc3ccc(S(=O)(=O)N4CCOCC4)cc32)c1 [10727/F08] | -5.4
29 | O=C1Nc2ccc(I)cc2C1=Cc1cc(C(F)(F)F)ccc1F [10728/B08] | 34.7
30 | COc1cc(N(C)C)ccc1C=C1C(=O)Nc2ccc(Br)c(C)c21 [10728/C05] | 16.1
31 | CCN(CC)c1ccc(C=C2C(=O)Nc3ccc(S(=O)(=O)N4CCOCC4)cc32)cc1 [10727/F02] | -0.5
32 | O=C1Nc2ccc(S(=O)(=O)N3CCOCC3)cc2C1=Cc1ccccc1Sc1ccc(Cl)cc1 [10727/F05] | -9.1
33 | CNS(=O)(=O)c1ccc2c(c1)C(=Cc1ccccc1Sc1ccc(Cl)cc1)C(=O)N2 [10727/D05] | 3.4
34 | COc1cc(Br)c(O)c(C=C2C(=O)Nc3c(Br)cc(Br)cc32)c1 [10718/A03] | -6.1
35 | COc1cc(C=C2C(=O)Nc3ccc(Br)c(C)c32)cc2c1OCO2 [10728/C11] | 21.8
36 | CCN(CC)c1ccc(C=C2C(=O)Nc3ccc(S(=O)(=O)Nc4ccc(C(F)(F)F)cc4)cc32)cc1 [10727/E02] | 22.4
37 | O=C1Nc2c(Br)cc(Br)cc2C1=Cc1c(F)cccc1C(F)(F)F [10728/A09] | 19.3
38 | CNS(=O)(=O)c1ccc2c(c1)C(=Cc1cccc(OC)c1OC)C(=O)N2 [10727/D11] | -23.7
39 | O=C(O)COc1ccccc1C=C1C(=O)Nc2c(Br)cc(Br)cc21 [10728/A10] | -3.4
40 | Cc1c(Br)ccc2c1C(=Cc1cccc(C(F)(F)F)c1F)C(=O)N2 [10728/C07] | 8.3
41 | CNS(=O)(=O)c1ccc2c(c1)C(=Cc1coc3ccccc3c1=O)C(=O)N2 [10727/D07] | 10.5
42 | Cc1c(Br)ccc2c1C(=Cc1c(F)cccc1C(F)(F)F)C(=O)N2 [10728/C09] | -6.8
43 | O=C1Nc2ccc(CCCl)cc2C1=Cc1cc2c(cc1Cl)OCO2 [10727/G06] | -12.1
44 | CCOC(=O)c1c(C)[nH]c(C=C2C(=O)Nc3c(Br)cc(Br)cc32)c1C [10718/A02] | 11.3
45 | O=C1Nc2ccc(I)cc2C1=Cc1c(F)cccc1C(F)(F)F [10728/B09] | 31.7
46 | COc1cccc(OC)c1C=C1C(=O)Nc2ccc(Br)c(C)c21 [10728/C03] | 9.7
47 | Cc1[nH]c(C=C2C(=O)Nc3ccc(CCCl)cc32)c(Br)c1Br [10717/G11] | 71.7
48 | COc1cc(N(C)C)ccc1C=C1C(=O)Nc2ccc(I)cc21 [10728/B05] | 26.9
49 | O=C1Nc2ccc(S(=O)(=O)N3CCOCC3)cc2C1=Cc1cc(Cl)cc(Br)c1O [10727/F04] | 17.9
50 | COC(=O)c1[nH]c(C)c(C=C2C(=O)Nc3c(Br)cc(Br)cc32)c1C(=O)OC [10718/A07] | -10.6
51 | O=C1Nc2ccc(S(=O)(=O)Nc3ccc(C(F)(F)F)cc3)cc2C1=Cc1cc(O)ccc1O [10727/E10] | 85.1
52 | O=C1Nc2ccc(S(=O)(=O)Nc3ccc(C(F)(F)F)cc3)cc2C1=Cc1cc2c(cc1Cl)OCO2 [10727/E06] | -9.3
